Experiments:
[1] = system: Human immunodeficiency virus 1; experiment: Antiviral activity against Human immunodeficiency virus 1 Ba-L by in human HOS cells assessed as inhibition of viarl entry by luciferase reporter gene assay; assay type: functional, organism-based
[2] = system: Human immunodeficiency virus 1; experiment: Antiviral activity against Human immunodeficiency virus 1 Ba-L in human PBL cells assessed as inhibition of viral replication; assay type: functional, organism-based
[3] = Metabolic stability of the compound in Sprague-Dawley rat plasma assessed as compound remaining at 1 mg/kg after 5 mins; assay type: ADME, organism-based; parameters: dose 1 mg/kg; conditions: read-out: Stability
[4] = Metabolic stability of the compound in Sprague-Dawley rat plasma assessed as compound remaining at 1 mg/kg after 10 mins; assay type: ADME, organism-based; parameters: dose 1 mg/kg; conditions: read-out: Stability
[5] = Metabolic stability of the compound in Sprague-Dawley rat plasma assessed as compound remaining at 1 mg/kg after 20 mins; assay type: ADME, organism-based; parameters: dose 1 mg/kg; conditions: read-out: Stability
[6] = Metabolic stability of the compound in Sprague-Dawley rat plasma assessed as compound remaining at 1 mg/kg after 30 mins; assay type: ADME, organism-based; parameters: dose 1 mg/kg; conditions: read-out: Stability
[7] = (§1) Metabolic stability of the compound in Sprague-Dawley rat plasma assessed as compound remaining at 1 mg/kg after 45 mins; assay type: ADME, organism-based; parameters: dose 1 mg/kg; conditions: Sprague-Dawley, plasma, read-out: Stability
[8] = (§2) Metabolic stability of the compound in Sprague-Dawley rat plasma assessed as compound remaining at 1 mg/kg after 60 mins; assay type: ADME, organism-based; parameters: dose 1 mg/kg; conditions: Sprague-Dawley, plasma, read-out: Stability
[9] = system: Plasma; experiment: Stability of the compound in Sprague-Dawley rat plasma; assay type: ADME, cell-free
[10] = Half life in Sprague-Dawley rat plasma at 1 mg/kg; assay type: ADME, organism-based; parameters: dose 1 mg/kg
[11] = Clearance in Sprague-Dawley rat plasma at 1 mg/kg; assay type: ADME, organism-based; parameters: dose 1 mg/kg
[12] = Oral bioavailability in Sprague-Dawley rat plasma at 1 mg/kg; assay type: ADME, organism-based
[13] = system: Plasma; experiment: as §1; assay type: ADME, organism-based; parameters: dose 1 mg/kg; conditions: in vivo, 0.75 h
[14] = system: Plasma; experiment: as §2; assay type: ADME, organism-based; parameters: dose 1 mg/kg; conditions: in vivo, 1 h
[15] = system: HOS; experiment: Cytotoxicity in human HOS cells assessed as cell death up to 1 uM; assay type: cell-based
[16] = system: PBL; experiment: Cytotoxicity in human PBL cells assessed as cell death up to 1 uM; assay type: cell-based

| SMILES | IC50 [1] [nM] | IC50 [2] [nM] | remaining at 5 min [3] [%] | remaining at 10 min [4] [%] | remaining at 20 min [5] [%] | remaining at 0.5 h [6] [%] | Activity [15] | Activity [16] | further results |
| --- | --- | --- | --- | --- | --- | --- | --- | --- | --- |
| Cc1nc(Oc2ccc(NS(C)(=O)=O)cc2)ccc1CN1CCC(N(C(=O)Nc2cc(F)c(C(N)=O)cc2F)c2cccc(F)c2)CC1 |  |  |  |  |  |  |  |  | half-life [10]: 3.9 h; clearance [11]: 15 mL/min/kg; bioavailability [12]: 53% |
| Cc1nc(Oc2ccc(NS(C)(=O)=O)cc2)ccc1CN1CCC(N(C(=O)Nc2ccc(C(N)=O)nc2C)c2cccc(F)c2)CC1 | 3.6 | 3.9 | 94 | 91 | 95 | 84 |  |  | remaining at 0.75 h [7]: 74%; remaining at 1 h [8]: 71%; half-life [10]: 2.8 h; clearance [11]: 11.7 mL/min/kg; bioavailability [12]: 49% |
| CS(=O)(=O)Nc1ccc(Oc2ccc(CN3CCC(N(C(=O)Nc4ccc(C(N)=O)nc4)c4ccccc4)CC3)cn2)cc1 | 10 |  |  |  |  |  |  |  |  |
| CS(=O)(=O)Nc1ccc(Oc2ccc(CN3CCC(N(C(=O)Nc4ccc(C#N)nc4)c4ccccc4)CC3)cn2)cc1 | 44 |  |  |  |  |  |  |  |  |
| Cc1nc(Oc2ccc(NS(C)(=O)=O)cc2)ncc1CN1CCC(N(C(=O)Nc2ccc(C(N)=O)nc2)c2cccc(F)c2)CC1 | 2.4 | 0.9 |  |  |  |  | Non-toxic | Non-toxic |  |

Further compounds by falling IC50 [1], results first:

| IC50 [1] [nM] | IC50 [2] [nM] | remaining at 5 min [3] [%] | remaining at 10 min [4] [%] | remaining at 20 min [5] [%] | remaining at 0.5 h [6] [%] | SMILES | Activity [15] | Activity [16] | further results |
| --- | --- | --- | --- | --- | --- | --- | --- | --- | --- |
| 1.9 | 5.3 | 90 | 88 | 94 | 120 | Cc1cc(NC(=O)N(c2cccc(F)c2)C2CCN(Cc3ccc(Oc4ccc(NS(C)(=O)=O)cc4)nc3C)CC2)cnc1C(N)=O |  |  | Stability [13]: 123%; Stability [14]: 134%; half-life [10]: 2 h; clearance [11]: 37 mL/min/kg; bioavailability [12]: 30% |
| 1.2 | 1.1 | 86 | 71 | 42 | 26 | Cc1nc(Oc2ccc(NS(C)(=O)=O)cc2)ccc1CN1CCC(N(C(=O)Nc2cnc(C(N)=O)c(F)c2)c2cccc(F)c2)CC1 |  |  | remaining at 0.75 h [7]: 12%; remaining at 1 h [8]: 4%; Stability [9]: Unstable |
| 1.2 | 0.5 |  |  |  |  | Cc1nc(Oc2ccc(NS(C)(=O)=O)cc2F)ccc1CN1CCC(N(C(=O)Nc2ccc(C(N)=O)nc2)c2cccc(F)c2)CC1 | Non-toxic | Non-toxic |  |
| 1.2 | 1.1 |  |  |  |  | Cc1nc(Oc2ccc(NS(C)(=O)=O)cc2Cl)ccc1CN1CCC(N(C(=O)Nc2ccc(C(N)=O)nc2)c2cccc(F)c2)CC1 | Non-toxic | Non-toxic |  |
| 1 | 2.2 |  |  |  |  | CS(=O)(=O)Nc1ccc(Oc2ccc(CN3CCC(N(C(=O)Nc4ccc(C(N)=O)nc4)c4ccccc4)CC3)c(C3CC3)n2)cc1 | Non-toxic | Non-toxic |  |
| 1 | 0.6 |  |  |  |  | Cc1cc(NS(C)(=O)=O)ccc1Oc1ccc(CN2CCC(N(C(=O)Nc3ccc(C(N)=O)nc3)c3cccc(F)c3)CC2)c(C)n1 | Non-toxic | Non-toxic |  |
| 1 | 0.8 | 85 | 67 | 44 | 25 | Cc1nc(Oc2ccc(NS(C)(=O)=O)cc2)ccc1CN1CCC(N(C(=O)Nc2ccc(C(N)=O)nc2)c2cccc(F)c2)CC1 | Non-toxic | Non-toxic | remaining at 0.75 h [7]: 11%; remaining at 1 h [8]: 3% |
